Results as given in patent US20250277012A1 (Protagonist Therapeutics, Inc., priority 2021, published 2025).
Starred links: 1 amine or outer side, 2 acyl side, 3 side chain; linkers in the order of their positions; H or OH if unused. Positions of bridges follow the written chain, without caps; N, C: chain ends. Non-standard residues stand in square brackets, D forms with d. Residues, ends and D or L forms follow the SMILES beside them. Groups on a side chain read outwards from the residue. *: point of attachment. X1 = C[N+](C)(CCNC(=O)CCCCCCCCCCCCCCCCC(=O)O)CC(=O)*; X5 = CCCCCCCCCCCCCCCC(=O)NCC[N+](C)(C)CC(=O)*; C18 diacid = O=C(O)CCCCCCCCCCCCCCCCC(=O)*; Dip = N[C@H](C(=O)O)C(c1ccccc1)c1ccccc1; γGlu = O=C(O)[C@H](CCC(=O)[*:2])N[*:1]; Palmitoyl = CCCCCCCCCCCCCCCC(=O)*; NMeF = CN[C@@H](Cc1ccccc1)C(=O)O; NMeT = CN[C@H](C(=O)O)[C@@H](C)O; NMeE = CN[C@@H](CCC(=O)O)C(=O)O; β3hF = N[C@H](CC(=O)O)Cc1ccccc1; Aad = N[C@@H](CCCC(=O)O)C(=O)O; NMeK = CN[C@@H](CCCCN)C(=O)O; Isovaleryl = CC(C)CC(=O)*; NMeC = CN[C@@H](CS)C(=O)O; Dap = NC[C@H](N)C(=O)O; AEEA = NCCOCCOCC(=O)O; Ahx = NCCCCCC(=O)O

target: T1, ferroportin (Homo sapiens, UniProt Q9NP59); experiment: T47D cell-based ferroportin internalization assay in presence of mouse serum albumin (MSA); parameters: a human breast carcinoma adherent cell line which endogenously expresses ferroportin; host or cells: T47D; conditions: T47D internalization assay in presence of mouse serum albumin (MSA); Table 6E
T1 sequence (Q9NP59 1-571): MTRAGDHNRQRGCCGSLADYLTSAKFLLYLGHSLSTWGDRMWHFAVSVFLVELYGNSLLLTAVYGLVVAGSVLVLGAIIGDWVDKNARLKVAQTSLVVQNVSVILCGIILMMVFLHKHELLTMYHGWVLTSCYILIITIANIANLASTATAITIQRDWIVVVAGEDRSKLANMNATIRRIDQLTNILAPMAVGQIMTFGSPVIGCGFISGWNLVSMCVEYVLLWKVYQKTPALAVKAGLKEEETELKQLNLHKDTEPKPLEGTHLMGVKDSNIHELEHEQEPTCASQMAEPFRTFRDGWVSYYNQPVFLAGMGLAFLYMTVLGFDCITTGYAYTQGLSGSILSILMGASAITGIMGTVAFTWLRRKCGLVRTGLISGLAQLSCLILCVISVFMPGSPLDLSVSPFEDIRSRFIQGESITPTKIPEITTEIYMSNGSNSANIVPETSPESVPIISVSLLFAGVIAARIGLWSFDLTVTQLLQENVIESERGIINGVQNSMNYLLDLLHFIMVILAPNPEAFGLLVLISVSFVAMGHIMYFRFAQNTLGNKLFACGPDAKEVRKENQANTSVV
Procedure, shortened: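 Peptide potency for inducing ferroportin internalization was measured in T47D cells in the presence of serum albumin. Cells grown in RPMI with fetal bovine serum were seeded in 96-well plates at 80-100 k cells per well in 100 ul and rested overnight. Dilution series of test peptides were preincubated 30 min at room temperature, then added to the cells after the medium was aspirated.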

IC50 | Compound
10 to 100 nM | CC(C)CC(=O)N[C@@H](CCCC(=O)O)C(=O)N[C@H](C(=O)N[C@@H](Cc1c[nH]cn1)C(=O)N[C@H](C(=O)N1CCC[C@H]1C(=O)N[C@H]1CSSC[C@@H](C(=O)N(C)[C@@H](CCCCNC(=O)COCCOCCNC(=O)COCCOCCNC(=O)[C@H](CN)NC(=O)CCCCCCCCCCCCCCCCC(=O)O)C(=O)N[C@H](CC(=O)N[C@H](CCCCN)C(N)=O)Cc2ccccc2)NC1=O)C(c1ccccc1)c1ccccc1)[C@@H](C)O [compound 244] (Isovaleryl-[Aad]TH[Dip]PCC[NMeK]([AEEA-AEEA-Dap-C18 diacid])[β3hF][dK]-NH2; disulfide 6-7)
10 to 100 nM | CC(C)CC(=O)N[C@@H](CCC(=O)O)C(=O)N[C@H](C(=O)N[C@@H](Cc1c[nH]cn1)C(=O)N[C@H](C(=O)N1CCC[C@H]1C(=O)N[C@H]1CSSC[C@@H](C(=O)N(C)[C@@H](CCCCNC(=O)COCCOCCNC(=O)COCCOCCNC(=O)[C@H](CN)NC(=O)CCCCCCCCCCCCCCCCC(=O)O)C(=O)N(C)[C@@H](Cc2ccccc2)C(=O)N[C@H](CCCCN)C(N)=O)N(C)C1=O)C(c1ccccc1)c1ccccc1)[C@@H](C)O [compound 266] (Isovaleryl-ETH[Dip]PC[NMeC][NMeK]([AEEA-AEEA-Dap-C18 diacid])[NMeF][dK]-NH2; disulfide 6-7)
10 to 100 nM | COC(=O)CC[C@H](NC(=O)CC(C)C)C(=O)N[C@H](C(=O)N[C@@H](Cc1c[nH]cn1)C(=O)N[C@H](C(=O)N1CCC[C@H]1C(=O)N[C@H]1CSSC[C@@H](C(=O)N(C)[C@@H](CCCCNC(=O)COCCOCCNC(=O)COCCOCCNC(=O)C[N+](C)(C)CCNC(=O)CCCCCCCCCCCCCCCCC(=O)O)C(=O)N[C@H](CC(=O)N[C@H](CCCCN)C(N)=O)Cc2ccccc2)NC1=O)C(c1ccccc1)c1ccccc1)[C@@H](C)O [compound 231] (Isovaleryl-E(OMe)TH[Dip]PCC[NMeK]([AEEA-AEEA-X1])[β3hF][dK]-NH2; disulfide 6-7)
100 to 500 nM | CC(C)CC(=O)N[C@@H](CN)C(=O)N[C@H](C(=O)N[C@@H](Cc1c[nH]cn1)C(=O)N[C@H](C(=O)N1CCC[C@H]1C(=O)N[C@H]1CSSC[C@@H](C(=O)N(C)[C@@H](CCCCNC(=O)COCCOCCNC(=O)COCCOCCNC(=O)[C@H](CN)NC(=O)CCCCCCCCCCCCCCCCC(=O)O)C(=O)N[C@H](CC(=O)N[C@H](CCCCN)C(N)=O)Cc2ccccc2)NC1=O)C(c1ccccc1)c1ccccc1)[C@@H](C)O [compound 289] (Isovaleryl-[Dap]TH[Dip]PCC[NMeK]([AEEA-AEEA-Dap-C18 diacid])[β3hF][dK]-NH2; disulfide 6-7)

same assay, conditions: Table 6E; T47D internalization assay with MSA

Compound | IC50
COC(=O)CC[C@H](NC(=O)CC(C)C)C(=O)N[C@H](C(=O)N[C@@H](Cc1c[nH]cn1)C(=O)N[C@H](C(=O)N1CCC[C@H]1C(=O)N[C@H]1CSSC[C@@H](C(=O)N[C@H](CCCCNC(=O)CCCCCNC(=O)C[N+](C)(C)CCNC(=O)CCCCCCCCCCCCCCCCC(=O)O)C(=O)N[C@H](C(=O)N[C@H](CCCCN)C(N)=O)C(c2ccccc2)c2ccccc2)NC1=O)C(c1ccccc1)c1ccccc1)[C@@H](C)O [compound 208] (Isovaleryl-E(OMe)TH[Dip]PCC[dK]([Ahx-X1])[Dip][dK]-NH2; disulfide 6-7) | 10 to 100 nM
CC(C)CC(=O)N[C@@H](CCC(=O)O)C(=O)N[C@H](C(=O)N[C@@H](Cc1cnc[nH]1)C(=O)N[C@H](C(=O)N1CCC[C@H]1C(=O)N[C@H]1CSSC[C@@H](C(=O)N(C)[C@@H](CCCCNC(=O)COCCOCCNC(=O)COCCOCCNC(=O)C[N+](C)(C)CCNC(=O)CCCCCCCCCCCCCCCCC(=O)O)C(=O)N[C@H](CC(=O)N[C@H](CCCCN)C(N)=O)Cc2ccccc2)NC1=O)C(c1ccccc1)c1ccccc1)[C@@H](C)O [compound 159] (Isovaleryl-ETH[Dip]PCC[NMeK]([AEEA-AEEA-X1])[β3hF][dK]-NH2; disulfide 6-7) | 10 to 100 nM
COC(=O)CC[C@H](NC(=O)CC(C)C)C(=O)N[C@H](C(=O)N[C@@H](Cc1c[nH]cn1)C(=O)N[C@H](C(=O)N1CCC[C@H]1C(=O)N[C@H]1CSSC[C@@H](C(=O)N[C@H](CCCCNC(=O)CCCCCNC(=O)C[N+](C)(C)CCNC(=O)CCCCCCCCCCCCCCCCC(=O)O)C(=O)N[C@H](CC(=O)N[C@H](CCCCN)C(N)=O)Cc2ccccc2)NC1=O)C(c1ccccc1)c1ccccc1)[C@@H](C)O [compound 213] (Isovaleryl-E(OMe)TH[Dip]PCC[dK]([Ahx-X1])[β3hF][dK]-NH2; disulfide 6-7) | 10 to 100 nM
CCCCCCCCCCCCCCCC(=O)NCC[N+](C)(C)CC(=O)NCCCCCC(=O)NCCCC[C@@H](C(=O)N[C@H](C(=O)N[C@H](CCCCN)C(N)=O)C(c1ccccc1)c1ccccc1)N(C)C(=O)[C@@H]1CSSC[C@H](NC(=O)[C@@H]2CCCN2C(=O)[C@@H](NC(=O)[C@H](Cc2cnc[nH]2)NC(=O)[C@@H](NC(=O)[C@H](CCC(=O)O)N(C)C(=O)CC(C)C)[C@@H](C)O)C(c2ccccc2)c2ccccc2)C(=O)N1 [compound 167] (Isovaleryl-[NMeE]TH[Dip]PCC[NMeK]([Ahx-X5])[Dip][dK]-NH2; disulfide 6-7) | 1 to 10 nM

The remaining lines, values ahead:

IC50 | Compound
1 to 10 nM | CCCCCCCCCCCCCCCC(=O)NCC[N+](C)(C)CC(=O)NCCCCCC(=O)NCCCC[C@@H](C(=O)N[C@H](C(=O)N[C@H](CCCCN)C(N)=O)C(c1ccccc1)c1ccccc1)N(C)C(=O)[C@@H]1CSSC[C@H](NC(=O)[C@@H]2CCCN2C(=O)[C@@H](NC(=O)[C@H](Cc2cnc[nH]2)NC(=O)[C@H]([C@@H](C)O)N(C)C(=O)[C@H](CCC(=O)O)NC(=O)CC(C)C)C(c2ccccc2)c2ccccc2)C(=O)N1 [compound 170] (Isovaleryl-E[NMeT]H[Dip]PCC[NMeK]([Ahx-X5])[Dip][dK]-NH2; disulfide 6-7)
100 to 500 nM | COC(=O)CC[C@H](NC(=O)CC(C)C)C(=O)N(C)[C@H](C(=O)N[C@@H](Cc1c[nH]cn1)C(=O)N[C@H](C(=O)N1CCC[C@H]1C(=O)N[C@H]1CSSC[C@@H](C(=O)N(C)[C@@H](CCCCNC(=O)C[N+](C)(C)CCNC(=O)CCCCCCCCCCCCCCCCC(=O)O)C(=O)N[C@H](C(N)=O)C(c2ccccc2)c2ccccc2)NC1=O)C(c1ccccc1)c1ccccc1)[C@@H](C)O [compound 186] (Isovaleryl-E(OMe)[NMeT]H[Dip]PCC[NMeK](X1)[Dip]-NH2; disulfide 6-7)
100 to 500 nM | CC(C)CC(=O)N[C@@H](CCC(=O)O)C(=O)N(C)[C@H](C(=O)N[C@@H](Cc1c[nH]cn1)C(=O)N[C@H](C(=O)N1CCC[C@H]1C(=O)N[C@H]1CSSC[C@@H](C(=O)N(C)[C@@H](CCCCNC(=O)CCCCCNC(=O)C[N+](C)(C)CCNC(=O)CCCCCCCCCCCCCCCCC(=O)O)C(=O)N[C@H](C(N)=O)C(c2ccccc2)c2ccccc2)NC1=O)C(c1ccccc1)c1ccccc1)[C@@H](C)O [compound 189] (Isovaleryl-E[NMeT]H[Dip]PCC[NMeK]([Ahx-X1])[Dip]-NH2; disulfide 6-7)
10 to 100 nM | CC(C)CC(=O)NC(CCC(=O)O)C(=O)NC(C(=O)NC(Cc1cnc[nH]1)C(=O)NC(C(=O)N1CCCC1C(=O)NC1CSCc2ccc(cc2)CSCC(C(=O)N(C)C(CCCCNC(=O)COCCOCCNC(=O)COCCOCCNC(=O)C(CN)NC(=O)CCCCCCCCCCCCCCCCC(=O)O)C(=O)NC(CC(=O)NC(CCCCN)C(N)=O)Cc2ccccc2)NC1=O)C(c1ccccc1)c1ccccc1)C(C)O (stereo not drawn) [compound 218]
10 to 100 nM | CC(C)CC(=O)N[C@@H](CCC(=O)O)C(=O)N(C)[C@H](C(=O)N[C@@H](Cc1c[nH]cn1)C(=O)N[C@H](C(=O)N1CCC[C@H]1C(=O)N[C@H]1CSSC[C@@H](C(=O)N(C)[C@@H](CCCCNC(=O)C[N+](C)(C)CCNC(=O)CCCCCCCCCCCCCCCCC(=O)O)C(=O)N[C@H](C(=O)N[C@H](CCCCN)C(N)=O)C(c2ccccc2)c2ccccc2)NC1=O)C(c1ccccc1)c1ccccc1)[C@@H](C)O [compound 187] (Isovaleryl-E[NMeT]H[Dip]PCC[NMeK](X1)[Dip][dK]-NH2; disulfide 6-7)
1 to 10 nM | CCCCCCCCCCCCCCCC(=O)N[C@@H](CCC(=O)NCCCC[C@@H](C(=O)N[C@H](CC(=O)N[C@H](CCCCN)C(N)=O)Cc1ccccc1)N(C)C(=O)[C@@H]1CSSC[C@H](NC(=O)[C@@H]2CCCN2C(=O)[C@@H](NC(=O)[C@H](Cc2cnc[nH]2)NC(=O)[C@@H](NC(=O)[C@H](CCC(=O)O)NC(=O)CC(C)C)[C@@H](C)O)C(c2ccccc2)c2ccccc2)C(=O)N1)C(=O)O [compound 223] (Isovaleryl-ETH[Dip]PCC[NMeK]([γGlu-Palmitoyl])[β3hF][dK]-NH2; disulfide 6-7)
10 to 100 nM | COC(=O)CC[C@H](NC(=O)CC(C)C)C(=O)N[C@H](C(=O)N[C@@H](Cc1c[nH]cn1)C(=O)N[C@H](C(=O)N1CCC[C@H]1C(=O)N[C@H]1CSSC[C@@H](C(=O)N[C@@H](CCCCNC(=O)CCCCCNC(=O)C[N+](C)(C)CCNC(=O)CCCCCCCCCCCCCCCCC(=O)O)C(=O)N[C@H](C(=O)N[C@H](CCCCN)C(N)=O)C(c2ccccc2)c2ccccc2)NC1=O)C(c1ccccc1)c1ccccc1)[C@@H](C)O [compound 211] (Isovaleryl-E(OMe)TH[Dip]PCCK([Ahx-X1])[Dip][dK]-NH2; disulfide 6-7)
